Substitutions are numbered along the chain they refer to.
Legend:
Type in all cases: biochemical
wild-type mAPA [1] = biological target: T1, wild-type mAPA (Mus musculus, UniProt P16406); assay: Ca2+ activation profile of GluNA hydrolysis by wild-type His-mAPA; conditions: 0.5 mM GluNA
T1 construct: made in house; host or cells: stably transfected CHO-K1 cells
T1 sequence (P16406 1-945): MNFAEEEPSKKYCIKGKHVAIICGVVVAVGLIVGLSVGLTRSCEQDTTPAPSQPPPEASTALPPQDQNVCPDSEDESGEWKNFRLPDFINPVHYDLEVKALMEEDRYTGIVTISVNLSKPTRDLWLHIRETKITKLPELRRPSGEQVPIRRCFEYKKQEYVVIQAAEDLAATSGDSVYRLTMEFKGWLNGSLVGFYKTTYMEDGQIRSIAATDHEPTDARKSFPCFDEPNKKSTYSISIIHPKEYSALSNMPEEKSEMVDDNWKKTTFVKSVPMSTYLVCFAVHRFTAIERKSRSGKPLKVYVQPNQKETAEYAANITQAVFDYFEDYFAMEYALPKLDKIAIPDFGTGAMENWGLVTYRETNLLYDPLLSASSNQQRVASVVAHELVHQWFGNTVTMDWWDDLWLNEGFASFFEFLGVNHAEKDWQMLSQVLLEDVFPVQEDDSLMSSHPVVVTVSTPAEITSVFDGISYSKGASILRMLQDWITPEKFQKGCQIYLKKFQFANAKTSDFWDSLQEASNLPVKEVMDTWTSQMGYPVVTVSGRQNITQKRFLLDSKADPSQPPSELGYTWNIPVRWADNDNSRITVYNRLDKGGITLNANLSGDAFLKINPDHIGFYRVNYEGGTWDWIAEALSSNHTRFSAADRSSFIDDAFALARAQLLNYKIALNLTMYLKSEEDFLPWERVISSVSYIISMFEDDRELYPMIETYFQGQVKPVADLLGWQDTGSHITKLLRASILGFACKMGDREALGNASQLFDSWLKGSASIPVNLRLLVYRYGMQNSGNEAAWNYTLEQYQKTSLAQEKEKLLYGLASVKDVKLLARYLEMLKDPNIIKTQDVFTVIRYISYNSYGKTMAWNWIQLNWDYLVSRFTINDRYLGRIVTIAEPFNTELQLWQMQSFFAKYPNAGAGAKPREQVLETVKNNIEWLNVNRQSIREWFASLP
Protocol: Enzyme assays were carried out for wild-type and mutated […] 50 mM Tris-HCl buffer, pH 7.4, with or without 4 mM CaCl2, by monitoring the rate of hydrolysis of GluNA, as previously described. The sensitivity to Ca^2+ of purified wild-type and mutated His-mAPA was determinated by incubating 0.5 mM GluNA with 0 to 4 mM CaCl2 in a final volume of 100 μl of 50 mM Tris-HCl buffer, pH 7.4. All the assays were performed in black 96-well plates (solid black 96-well flat-bottomed non-treated plates with no lid; Corning Costar). All of the enzymatic studies were performed such that substrate hydrolysis rates were maintained below 10% (initial rate conditions). […] Fluorescence signals were monitored by counting photons with a spectrophotometer (Fusion universal microplate analyser; Packard) equipped with a temperature control device and a plate shaker. […] Fig 3 Effects of the divalent cation Ca^2+ on recombinant wild-type and mutated mouse APAs enzymatic activities. Purified mAPAs (2 μg) were incubated at 37°C for 30 min with 0.5 mM GluNA with various concentrations of CaCl2 in a final volume of 100 μl of 50 mM Tris-HCl buffer (pH7.4). (A), APA enzymatic activities expressed as a percentage of maximal hydrolysis velocity obtained with 4 mM Ca^2+ for each purification vs log of Ca^2+ concentration. (B), Effect of increasing Ca^2+ concentration on APA enzymatic activities.

wild-type mAPA [2] = biological target: T1, wild-type mAPA; assay: Inhibition of GluNA hydrolysis by purified recombinant wild-type His-mAPA
Protocol: (§1) Enzyme assays were carried out for wild-type and mutated His-mAPAs in 50 mM Tris-HCl buffer, pH 7.4, with or without 4 mM CaCl2, by monitoring the rate of hydrolysis of GluNA, as previously described. The sensitivity to Ca^2+ of purified wild-type and mutated His-mAPA was determinated by incubating 0.5 mM GluNA with 0 to 4 mM CaCl2 in a final volume of 100 μl of 50 mM Tris-HCl buffer, pH 7.4. All the assays were performed in black 96-well plates (solid black 96-well flat-bottomed non-treated plates with no lid; Corning Costar). All of the enzymatic studies were performed such that substrate hydrolysis rates were maintained below 10% (initial rate conditions). The kinetic curves were monitored by following the increase in fluorescence at 460 nm (lex = 330 nm), induced by the release of the β-naphthylamide fluorogenic part of the substrate by APA. Fluorescence signals were monitored by counting photons with a spectrophotometer (Fusion universal microplate analyser; Packard) equipped with a temperature control device and a plate shaker. The kinetic parameters (Km and kcat) were determined from Michaelis-Menten plots, using GraphPad Prism 4 software (GraphPad) with a final concentration of substrate (GluNA) from 0.005 to 5 mM with or without 4 mM Ca^2+. For evaluation of the substrate specificity of APA with or without 4 mM Ca^2+, the rate of hydrolysis of […] additional substrates, α-L-aspartate-β-naphthylamide (AspNA), α-L-alanine-β-naphthylamide (AlaNA) and basic α-L-lysine-β-naphthylamide (LysNA), was determined under the same experimental conditions as described for GluNA. The sensitivity of wild-type and mutated His-mAPAs to inhibition by [(3S)-3-amino-4-sulfanyl-butane-1-sulfonic acid] (EC33), glutamate-thiol (GluSH), glutamate-phosphonic-acid (GluPO3H2), methionine-thiol (MetSH) and lysine-thiol (LysSH) was determined by establishing dose-dependent inhibition curves for a final GluNA concentration of 0.5 mM in the presence or absence of 4 mM CaCl2. These compounds being linear competitive inhibitors, their Ki were calculated from the formula Ki = IC50/ (1+ [GluNA]/Km).

R878A mutated mAPA = biological target: T2, R878A mutated mAPA (Mus musculus, UniProt P16406, R878A); assay: Inhibition of GluNA hydrolysis by purified recombinant R878A His-mAPA
T2 construct: made in house; host or cells: stably transfected CHO-K1 cells
T2 sequence (P16406 1-945 R878A): T1 sequence (P16406 1-945) with R878A
Protocol: as §1

R878K mutated mAPA = biological target: T3, R878K mutated mAPA (Mus musculus, UniProt P16406, R878K); assay: Inhibition of GluNA hydrolysis by purified recombinant R878K His-mAPA
T3 construct: made in house; host or cells: stably transfected CHO-K1 cells
T3 sequence (P16406 1-945 R878K): T1 sequence (P16406 1-945) with R878K
Protocol: as §1

Structure (SMILES) | EC50 (wild-type mAPA [1]; 0 to 4 mM CaCl2, read-out: EC50 of activation of enzymatic activity) [µM] | increase of enzymatic activity (wild-type mAPA [1]; Ca2+ concentration raised from 0 to 4 mM) [fold] | Ki (wild-type mAPA [2]) [µM] | Ki (R878A mutated mAPA) [µM] | times less efficiently inhibited than wild-type (R878A mutated mAPA; R878A mAPA, presence of Ca2+) [times] | Ki (R878K mutated mAPA) [µM] | times less efficiently inhibited than wild-type (R878K mutated mAPA; R878K mAPA, presence of Ca2+) [times]
[Ca+2].[Cl-].[Cl-] [Ca^2+] | 22 ± 5 | 7 |  |  |  |  | 
N[C@@H](CCC(=O)O)P(=O)(O)O [GluPO3H2, (4R)-4-amino-4-phosphonobutanoic acid] |  |  | 0.074 ± 0.0077 | 6.5 ± 0.24 | 87 | 0.619 ± 0.021 | 8
